What is called melting point is the temperature, or range, at which the solid turns liquid.

The target in series [1] is T1, hα7-wt nAChR-expressing GH4Cl cells (Homo sapiens, UniProt P36544).
T1 construct: expressed in transfected cells
Briefly: Patch-clamp current recording (whole-cell), potentiation of choline 1 mM response, PAM type. Format: cell-based. The arrangement: key to Pam type: Type 0 compounds minimally enhance the effect size of the current elicited by 1 mM choline.; Type 1 compounds enhance the effect size of the current elicited by 1 mM choline but minimally alter the kinetics of the receptor.; Type 2 compounds enhance the effect size of the current elicited by 1 mM choline while reducing the rate and/or the extent of desensitization.; Type 3 compounds enhance the effect size of the current elicited by 1 mM choline. When tested at higher concentrations up to 10 μM they completely inhibit desensitization, in particular a 1 mM choline application of 250 milliseconds.; Type 4 compounds allow for an initial desensitization of the receptor followed by a re-opening of the receptor during agonist application. The settings on record: for EC50: according to Ex. D.2, "<5" = no top plateau reached at maximal concentration, read-out: Potency (pEC50) (converted); for Pam type: patch-clamp current recording, 1 mM choline. As for the experimental part:
The compounds of the present invention are classified as type 1-4, based on qualitative kinetic properties, as determined by whole-cell voltage-clamp recordings. This classification is based on the effect of an α7 PAM compound, as described hereinbefore, on the signal elicited by an agonist application. In particular, said agonist is choline at a concentration of 1 mM. In a preferred experimental setting, said α7 PAM compound and choline are simultaneously applied to the cell, as described hereinafter. Desensitization is defined as the closure of the receptor upon activation during the application of the agonist in whole-cell voltage-clamp electrophysiology measurements seen as the reduction of the […] current after initial activation by the agonist.
The definition of the PAM types 1-4 is described hereinafter: • Type 0 compounds minimally enhance the effect size of the current elicited by 1 mM choline. • Type 1 compounds enhance the effect size of the current elicited by 1 mM choline but minimally alter the kinetics of the receptor. In particular, the rate and the extent of desensitization, elicited by the agonist, is not affected. The compound-modulated response to 1 mM choline, therefore, is a close to linear scaling of the 1 mM choline response in absence of the α7 PAM compound. • Type 2 compounds enhance the effect size of the current elicited by 1 mM choline while reducing the rate and/or the extent of desensitization. • Type 3 compounds enhance the effect size of the current elicited by 1 mM choline. […] At low-potency concentrations of the α7 PAM compound, the agonist-induced activation, which is followed by desensitization, can still be separated from the compound-induced re-opening as an initial inward current-maximum. At higher potency concentrations of the α7 PAM compound, the re-opening occurs faster than the closure due to desensitization so that the initial current-maximum disappears.
Patch-clamp Current Recording
Patch-clamp recording from mammalian cells has provided a powerful means of assessing the function of membrane-bound proteins thought to be subunits of ligand-gated ion channels. Activation of such proteins by endogenous or exogenous ligands cause opening of a pore associated with the receptor through which ions flow down their electrochemical gradient. In the case of the hα7-wt nAChR-expressing GH4Cl recombinant cell line the preferential permeability to calcium of this receptor means that calcium flows into the cell upon activation by ACh, choline and other nicotinic ligands giving rise to a calcium current. Since this receptor rapidly desensitizes in the presence of agonist it is important an application system is used which is capable of very rapid switching of solutions (<100 ms) to prevent partial or full desensitisation of receptor responses coincident with the time of agonist application. Consequently, a second convenient technique to assess the enhancement of nicotinic efficacy is patch-clamp recording from hα7-wt nAChR-expressing GH4Cl cells coupled with a rapid-application system.
• a) Assay buffers • The external recording solution consisted of 152 mM NaCl, 5 mM KCl, 1 mM MgCl2, 1 mM Calcium, 10 mM HEPES; pH 7.3. The internal recording solution consisted of 140 mM CsCl, 10 mM HEPES, 10 mM EGTA, 1 mM MgCl2, pH 7.3. • b) Patch-clamp recording was carried out using a Patch-clamp amplifier (Multiclamp 700A, Axon Instruments, Calif., USA). hα7-wt nAChR-expressing GH4Cl cells were patch-clamp in the whole cell configuration (Hamill et al, 1981) with a borosilicate glass electrode of 1.5-3 MΩ tip resistance when filled with the internal recording solution. Recordings were made on cells with membrane resistance >500 MΩ and more preferably 1GΩ and series resistance <15 MΩ with at least 60% series resistance compensation. […]
In general terms: Patch clamp records ionic current or voltage across a cell membrane.

T1 sequence (P36544 23-502): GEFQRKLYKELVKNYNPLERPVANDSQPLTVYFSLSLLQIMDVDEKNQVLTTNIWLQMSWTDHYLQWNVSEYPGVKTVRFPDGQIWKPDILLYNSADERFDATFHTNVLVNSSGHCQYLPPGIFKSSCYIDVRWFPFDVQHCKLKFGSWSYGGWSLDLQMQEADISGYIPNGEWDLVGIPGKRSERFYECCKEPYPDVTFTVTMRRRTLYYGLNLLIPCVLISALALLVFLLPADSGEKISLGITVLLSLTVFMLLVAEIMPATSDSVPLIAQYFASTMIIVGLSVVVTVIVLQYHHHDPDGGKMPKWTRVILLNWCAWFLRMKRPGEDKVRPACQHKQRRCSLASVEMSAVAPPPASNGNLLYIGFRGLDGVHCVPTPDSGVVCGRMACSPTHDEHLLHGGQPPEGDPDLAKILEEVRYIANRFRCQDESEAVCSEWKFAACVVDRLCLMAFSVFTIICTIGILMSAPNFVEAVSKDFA

As to `Cc1cc(-n2nc(Nc3ccc(F)c(F)c3F)nc2C[C@H](C)O)cc(C)n1` [E189, (alphaS)-1-(2,6-dimethyl-4-pyridinyl)-alpha-methyl-3-[(2,3,4-trifluorophenyl)amino]-1H-1,2,4-triazole-5-ethanol], the melting point was 138 °C. For the same compound, in series [1], the EC50 was 631 nM and the Pam type was found to be 2.

In turn, `Cc1cc(-n2nc(Nc3cccc(OC(F)(F)F)c3)nc2CCC(=O)N(C)C)ccn1` [E73] gave a melting point of 215.4 °C. For the same compound, in series [1], the EC50 is 135 nM and the Pam type turned out to be 4.

`CC[C@H](O)Cc1nc(Nc2cccc(Cl)c2F)nn1-c1ccnc(C)c1` [E173] displayed a melting point of 127.9 °C. In series [1], the EC50 was 407 nM and the Pam type is listed as 2.

Take `Cc1cc(-n2nc(Nc3cccc(OC(F)(F)F)c3)nc2CC(=O)NC2CCC2)cc(C)n1` [E184]: the melting point was found to be 264.4 °C. In series [1], the EC50 is 257 nM and the Pam type is recorded as 2.

Compound `Cc1cc(-n2nc(Nc3cccc(C(F)(F)F)c3)nc2CC(=O)NC2CCC2)cc(C)n1` [E174] yielded a melting point of 276.3 °C. In series [1], the EC50 is 162 nM and the Pam type was found to be 2.

`Cc1cc(-n2nc(Nc3ccc(F)c(F)c3)nc2C[C@@H](C)O)cc(C)n1` [E197] yielded a melting point of 225.1 °C. In series [1], the EC50 is 1780 nM and the Pam type was found to be 2.

Take `CCNC(=O)Cc1nc(Nc2ccc(F)c(F)c2F)nn1-c1cc(C)nc(C)c1` [E210]: the melting point was determined as 241.5 °C. In addition, in series [1], the EC50 is 417 nM and the Pam type is 2.

Turning to `C[C@H](O)Cc1nc(Nc2ccc(F)c(C(F)(F)F)c2)nn1-c1ccc(F)cc1` [E20], the melting point amounted to 170.4 °C. The EC50 in series [1] is 4470 nM.

With `CN(C)C(=O)CCc1nc(Nc2cccc(OC(F)(F)F)c2)nn1-c1cccnc1Cl` [E76], the melting point is 145.7 °C. The EC50 in series [1] is 407 nM.

On to `CNC(=O)Cc1nc(Nc2ccc(F)c(C(F)(F)F)c2)nn1-c1ccnc(C)c1` [E35], for which the melting point amounted to 272.9 °C. Moreover, in series [1], the EC50 is 1170 nM and the Pam type was found to be 3.

For the compound `CCNC(=O)Cc1nc(Nc2ccc(F)c(F)c2)nn1-c1cc(C)nc(C)c1` [E167, 3-[(3,4-difluorophenyl)amino]-1-(2,6-dimethyl-4-pyridinyl)-N-ethyl-1H-1,2,4-triazole-5-acetamide], the melting point was 296.8 °C. In series [1], the EC50 is 617 nM and the Pam type was 2.

In turn, `Cc1cc(-n2nc(Nc3cccc(C(F)(F)F)c3)nc2CC(=O)NCC2CC2)cc(C)n1` [E177] returned a melting point of 260.9 °C. In series [1], the EC50 is 219 nM and the Pam type is reported as 2.

In turn, `CC[C@H](O)Cc1nc(Nc2cc(F)c(F)c(F)c2)nn1-c1ccnc(C)c1` [E187, (alphaS)-alpha-ethyl-1-(2-methyl-4-pyridinyl)-3-[(3,4,5-trifluorophenyl)amino]-1H-1,2,4-triazole-5-ethanol] registered a melting point of 177.4 °C. In series [1], the EC50 is 224 nM and the Pam type was 2.

The compound `Cc1cc(-n2nc(Nc3cc(F)c(F)cc3F)nc2C[C@H](C)O)cc(C)n1` [E194] had a melting point of 177.7 °C. Also, the EC50 in series [1] was 5010 nM.

In turn, `Cc1cc(-n2nc(Nc3cccc(Cl)c3)nc2C[C@H](C)O)ccn1` [E23] registered a melting point of 185 °C. Further, the EC50 in series [1] is 2190 nM.

Regarding `Cc1cc(-n2nc(Nc3ccc(F)c(C(F)(F)F)c3)nc2CCCCl)ccn1` [E9, 5-(3-chloropropyl)-N-[4-fluoro-3-(trifluoromethyl)phenyl]-1-(2-methyl-4-pyridinyl)-1H-1,2,4-triazol-3-amine], the melting point was found to be 182.8 °C. The EC50 in series [1] is 437 nM.

On to `Cc1cc(-n2nc(Nc3ccc4c(c3)OC(F)(F)O4)nc2CC(=O)NCC2CC2)c(C)cn1` [E161], for which the melting point was determined as 227.2 °C. Further, in series [1], the EC50 is 1320 nM and the Pam type amounted to 2.

In the case of `CC[C@H](O)Cc1nc(Nc2ccc(F)c(F)c2)nn1-c1cc(C)nc(C)c1` [E132], the melting point was found to be 180.6 °C. Further, in series [1], the EC50 is 240 nM and the Pam type amounted to 2.

`CNC(=O)CCc1nc(Nc2cccc(OC(F)(F)F)c2)nn1-c1ccnc(C)c1` [E54]: the melting point was 153.7 °C. Also, in series [1], the EC50 was 2290 nM and the Pam type was found to be 2.

`C[C@H](O)Cc1nc(Nc2ccc(F)c(C(F)(F)F)c2)nn1-c1cccc(F)c1` [E18]: the melting point worked out at 161 °C. In addition, the EC50 in series [1] was 3310 nM.

In turn, `CN(C)C(=O)CCc1nc(Nc2ccc(F)c(F)c2)nn1-c1ccccc1Cl` [E57] yielded a melting point of 179.6 °C. For the same compound, in series [1], the EC50 is 1070 nM and the Pam type was 3.

In turn, `Cc1cc(-n2nc(Nc3ccc(F)c(C(F)(F)F)c3)nc2C(C)CO)ccn1` (stereo not drawn) [E31] returned a melting point of 181.9 °C. In series [1], the EC50 is 2240 nM and the Pam type stood at 2.

As to `COCCCc1nc(Nc2ccc(F)c(C(F)(F)F)c2)nn1-c1ccnc(C)c1` [E15], the melting point came to 141.4 °C. For the same compound, in series [1], the EC50 is 110 nM and the Pam type came to 0.

For the compound `COc1ccc(-n2nc(Nc3ccc(F)c(F)c3)nc2C[C@H](C)O)cc1` [E21], the melting point is 181.4 °C. For the same compound, in series [1], the EC50 was 1780 nM and the Pam type is on record as 1.

As for `Cc1cc(-n2nc(Nc3ccc4c(c3)OC(F)(F)O4)nc2CC(=O)NCC2CC2)cc(C)n1` [E201], the melting point amounted to 270.3 °C. Further, in series [1], the EC50 was 302 nM and the Pam type is 2.

For `Cc1cc(-n2nc(Nc3ccc(F)c(F)c3F)nc2CC(=O)NC2CC2)cc(C)n1` [E211], the melting point is 237.3 °C. In series [1], the EC50 is 372 nM and the Pam type was 2.

For `CNc1ncccc1-n1nc(Nc2cccc(OC(F)(F)F)c2)nc1CCC(=O)N(C)C` [E6, N,N-Dimethyl-1-[2-(methylamino)-3-pyridinyl]-3-[[3-(trifluoromethoxy)phenyl]amino]-1H-1,2,4-triazole-5-propanamide], the melting point came out at 212.8 °C. For the same compound, the EC50 in series [1] was 851 nM.

`CN(C)C(=O)CCc1nc(Nc2ccc(F)c(F)c2)nn1-c1cccc(Cl)c1` [E58]: the melting point came out at 165.4 °C. Also, the EC50 in series [1] is 339 nM.

`COc1cc(Nc2nc(C[C@H](C)O)n(-c3cccnc3)n2)cc(C(F)(F)F)c1` [E144] registered a melting point of 145.5 °C. For the same compound, the EC50 in series [1] was 2950 nM.

As to `Cc1cc(-n2nc(Nc3ccc4c(c3)OC(F)(F)O4)nc2CC(=O)NC2CC2)c(C)cn1` [E160], the melting point stood at 248.3 °C. Also, in series [1], the EC50 is 2140 nM and the Pam type was determined as 2.

As for `COc1cc(Nc2nc(C[C@H](C)O)n(-c3ccc(C)nc3)n2)cc(C(F)(F)F)c1` [E143], the melting point is 137.5 °C. Besides, in series [1], the EC50 is 912 nM and the Pam type came out at 4.

Regarding `Cc1cc(-n2nc(Nc3cccc(OC(F)(F)F)c3)nc2CC(=O)NCC2CC2)cc(C)n1` [E165], the melting point was 247.5 °C. In addition, in series [1], the EC50 is 209 nM and the Pam type turned out to be 1.

For the origin of these results see patent publication US8778974B2, “Trisubstituted 1,2,4 triazoles” (Janssen Pharmaceutica NV, priority 2008, dated 2014).
